This assay concerns the target T1, human GPR119 receptor (Homo sapiens, UniProt Q8TDV5).
T1 construct: expressed in transfected cells
T1 sequence (Q8TDV5 1-335): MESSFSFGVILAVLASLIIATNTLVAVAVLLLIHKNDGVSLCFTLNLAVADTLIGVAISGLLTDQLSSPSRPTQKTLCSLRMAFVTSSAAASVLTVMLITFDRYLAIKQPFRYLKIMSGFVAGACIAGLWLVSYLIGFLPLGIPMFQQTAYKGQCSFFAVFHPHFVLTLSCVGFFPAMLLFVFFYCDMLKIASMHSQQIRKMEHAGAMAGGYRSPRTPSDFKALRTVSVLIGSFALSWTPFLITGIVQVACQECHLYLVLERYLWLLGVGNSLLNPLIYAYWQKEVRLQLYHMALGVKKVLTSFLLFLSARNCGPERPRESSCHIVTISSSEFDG
The assay can be described thus: Human GPR119 activity assay (cAMP HTRF in HEK293-hGPR119 cells). It is filed as cell-based. Conditions: cAMP stimulation in HEK293 cells stably expressing human GPR119, 20 min incubation, read-out: Agonist potency at the human GPR119, EC50. Here is the method:
Human GPR119 Activity Assay
Agonists to the human GPR119 receptor were characterized by measuring human GPR119 receptor-mediated stimulation of cyclic AMP (cAMP) in HEK 293 cells expressing the human GPR119 receptor.
Briefly, cAMP content was determined using a cAMP kit based on HTRF technology (Homogeneous Time-Resolved Fluorescence, Cisbio Cat. no. 62AM2PEC). HEK293 cells stably expressing the human GPR119 receptor (HEK293-hGPR119 cells) were cultured in DMEM (Gibco #31966-021) supplemented with 10% Bovine Calf Serum (Hyclone #SH30072.03), and, 500 μg/mL Hygromycin B (Roche Diagnostics 843555). At 80% confluency, cells were detached using Trypsine and aliquoted at a density of 5×10^6 cells/mL in freezing medium (DMEM (Gibco # 31966-021), 20% BCS (Hyclone #SH30072.03), 10% DMSO (Sigma #D2650) and stored at −135° C. On the experimental day, HEK293-hGPR119 cells were thawn and diluted to 0.4×10^6 cells/mL in assay buffer (1×HBSS (Gibco Cat. no. 14025-049), 20 mM Hepes (Gibco Cat. no. 15630-056), 0.1% BSA, pH 7.4) and incubated with test substances for 20 min at room temperature. After addition of HTRF reagents diluted in lysis buffer, the 96- or 384-well plates were incubated 1 hour, followed by measuring the fluorescence ratio at 665 nm/620 nm. […]
On the technique in general: Time-resolved FRET reads energy transfer from a long-lived donor to a nearby acceptor.

For `CCN(Cc1ccc(-c2ccc(S(C)(=O)=O)cc2)nn1)C1CCN(C(=O)OC(C)(C)C)CC1` [Example A4, tert-Butyl 4-[ethyl({6-[4-(methylsulfonyl)phenyl]pyridazin-3-yl}methyl)amino]-piperidine-1-carboxylate], the EC50 turned out to be 83 nM.

Take `CC(C)(C)OC(=O)N1CCC(COc2ccc(-c3ccc(S(C)(=O)=O)cc3)nn2)CC1` [Example A1, tert-Butyl 4-[({6-[4-(methylsulfonyl)phenyl]pyridazin-3-yl}oxy)methyl]piperidine-1-carboxylate]: the half-maximal effective concentration (EC50) was 46 nM.

As usually defined, the EC50 is the midpoint of the concentration-response curve.

(Values after patent US20080058339A1, “New compounds” (Biovitrum, priority 2006, published 2008).)
